Reference: paper PMC8815882, “Screening the pandemic response box identified benzimidazole carbamates, Olorofim and ravuconazole as promising drug candidates for the treatment of eumycetoma” (PLoS Neglected Tropical Diseases, 2022)
≈ marks a conversion by molar mass, not a printed value. Like-named read-outs stand apart in the source and are kept apart here.

Columns and labels:
M. mycetomatis MM55 = test: IC50 determination, 2-fold dilution series 16 to 0.03125 μM; assay type: cell-based, Madurella mycetomatis
[1] = test system: ten different M. mycetomatis isolates; set-up: method as in PMID 24945848, PMID 22964246, PMID 31904836; conditions: asterisk: determined in previous works ref 19-21; cited from earlier work
[2] = test system: M. mycetomatis genome strain MM55; test: CLSI M38-A2 based in vitro susceptibility screening (XTT or resazurin), growth at fixed concentration; assay type: cell-based, Madurella mycetomatis; conditions: Madurella mycetomatis
[3] = test system: M. mycetomatis isolate MM55; test: M. mycetomatis grain infection model in G. mellonella larvae, survival; assay type: in vivo, Galleria mellonella; set-up: In vivo efficacy, Larvae survival %: concentration or dose not given beside the values; conditions: for Effect on larvae survival Day 4 (words): day four; for In vivo efficacy, Enhanced survival compared to control? / In vivo efficacy, Larvae survival %: G. mellonella larvae infected with M. mycetomatis
[4] = test system: ten different M. mycetomatis isolates; test: MIC / MIC50 determination (XTT) in ten M. mycetomatis isolates; assay type: cell-based, Madurella mycetomatis; conditions: for MIC50 / MIC: Madurella mycetomatis
[5] = test system: Me. romeroi strain CBS128765; test: CLSI M38-A2 based in vitro susceptibility screening at 25 μM; assay type: cell-based, Medicopsis romeroi; conditions: selected if >75% (resazurin) or >80% (XTT) fungal growth inhibited
[6] = Madurella mycetomatis, MM55, Table 2, M. mycetomatis MM55, read-out: IC50
[7] = Madurella mycetomatis, MM55, mean of replicates, read-out: IC50 mean
[8] = Madurella mycetomatis, MM55, replicate 1, read-out: IC50 1 um
[9] = Madurella mycetomatis, MM55, replicate 1, read-out: IC90 1 um
[10] = Madurella mycetomatis, MM55, replicate 2, read-out: IC50 2 um
[11] = Madurella mycetomatis, MM55, replicate 2, read-out: IC90 2 um
[12] = Madurella mycetomatis, MM55, replicate 3, read-out: IC50 3 um
[13] = Madurella mycetomatis, MM55, replicate 3, read-out: IC90 3 um
[14] = 20 μM per larvae, vs infected control
[15] = 25 uM, replicate A, M. mycetomatis MM55, read-out: Percentage survival at 25um, 25 um A
[16] = 100 uM, mean of three, M. mycetomatis MM55, read-out: Percentage survival at 100um, 100 uM mean
[17] = 100 uM, replicate 1, M. mycetomatis MM55, read-out: Percentage survival at 100um, 100 uM A (first replicate column)
[18] = 100 uM, replicate 2, M. mycetomatis MM55, read-out: Percentage survival at 100um, 100 uM A (second replicate column)
[19] = 100 uM, replicate 3, M. mycetomatis MM55, read-out: Percentage survival at 100um, 100 uM A (third replicate column)
[20] = median MIC over ten M. mycetomatis isolates, no asterisk, read-out: MIC50
[21] = over the tested M. mycetomatis isolates, read-out: MIC50 mean
[22] = isolate CBS247.48, read-out: MIC CBS247.48
[23] = isolate MM14, read-out: MIC MM14
[24] = isolate MM45, read-out: MIC MM45
[25] = isolate MM55, read-out: MIC MM55
[26] = isolate ParijsAl1, read-out: MIC ParijsAl1
[27] = isolate Peru72012, read-out: MIC Peru72012

CC(=O)N1CCN(c2ccc(OCC3COC(Cn4ccnc4)(c4ccc(Cl)cc4Cl)O3)cc2)CC1 (centres unmarked) [MMV637533, Ketoconazole, reference compound]
Drug static or cidal (M. mycetomatis MM55): Cidal | IC50 (M. mycetomatis MM55; [6]): 70 nM | IC50 (M. mycetomatis MM55; Madurella mycetomatis, MM55, replicate 1, read-out: IC50 1): < 98 nM | IC90 (M. mycetomatis MM55; Madurella mycetomatis, MM55, replicate 1, read-out: IC90 1): 180 nM | IC50 (M. mycetomatis MM55; Madurella mycetomatis, MM55, replicate 2, read-out: IC50 2): < 98 nM | IC90 (M. mycetomatis MM55; Madurella mycetomatis, MM55, replicate 2, read-out: IC90 2): < 98 nM | IC50 (M. mycetomatis MM55; Madurella mycetomatis, MM55, replicate 3, read-out: IC50 3): 380 nM | IC90 (M. mycetomatis MM55; Madurella mycetomatis, MM55, replicate 3, read-out: IC90 3): 1050 nM | MIC50 [1]: 0.13 µM (≈ 0.0691 µg/mL) | MIC range [1]: 0.06 to 1.9 µM | activity at 25 µM ([2]; 25 uM, mean, read-out: Percentage survival at 25um, 25 uM mean): -0.0796% | activity at 25 µM ([2]; 25 uM, replicate A, read-out: Percentage survival at 25um, 25 um A): 1.08% | activity at 25 µM ([2]; 25 uM, replicate B, read-out: Percentage survival at 25um, 25 uM B): -3.63% | activity at 25 µM ([2]; 25 uM, replicate C, read-out: Percentage survival at 25um, 25 uM C): 2.31% | activity at 100 µM ([2]; 100 uM, mean, read-out: Percentage survival at 100um, 100 uM mean): 5.46% | activity at 100 µM ([2]; 100 uM, replicate (first column), read-out: Percentage survival at 100um, 100 uM A): 1.43% | activity at 100 µM ([2]; 100 uM, replicate (second column), read-out: Percentage survival at 100um, 100 uM A): 7.48% | activity at 100 µM ([2]; 100 uM, replicate (third column), read-out: Percentage survival at 100um, 100 uM A): 7.47%

N#C/C(=C1/SC[C@@H](c2ccc(Cl)cc2Cl)S1)n1ccnc1 [MMV1782224, Luliconazole, reference compound]
Drug static or cidal (M. mycetomatis MM55; M. mycetomatis): Cidal | IC50 (M. mycetomatis MM55; [6]): < 20 nM | IC50 (M. mycetomatis MM55; [7]): < 98 nM | IC90 (M. mycetomatis MM55; Madurella mycetomatis, MM55, mean of replicates, read-out: IC90 mean): < 98 nM | IC50 (M. mycetomatis MM55; [8]): < 98 nM | IC90 (M. mycetomatis MM55; [9]): < 98 nM | IC50 (M. mycetomatis MM55; [10]): < 98 nM | IC90 (M. mycetomatis MM55; [11]): < 98 nM | IC50 (M. mycetomatis MM55; [12]): < 98 nM | IC90 (M. mycetomatis MM55; [13]): < 98 nM | IC50 (M. mycetomatis MM55; Table 2, M. mycetomatis MM55, read-out: IC50): < 30 nM | Effect on larvae survival Day 4 (words) [3, 14]: prolonged larvae survival | In vivo efficacy, Enhanced survival compared to control? [3]: no | In vivo efficacy, Larvae survival % [3]: 11.1% | activity at 25 µM ([2]; 25 uM, mean of three, M. mycetomatis MM55, read-out: Percentage survival at 25um, 25 uM mean): 1.75% | activity at 25 µM [2, 15]: -0.617% | activity at 25 µM ([2]; 25 uM, replicate B, M. mycetomatis MM55, read-out: Percentage survival at 25um, 25 uM B): 1.37% | activity at 25 µM ([2]; 25 uM, replicate C, M. mycetomatis MM55, read-out: Percentage survival at 25um, 25 uM C): 4.51% | activity at 100 µM [2, 16]: 6.85% | activity at 100 µM [2, 17]: -0.151% | Percent fungal survival at 100 µM [2, 18]: 8.79% | activity at 100 µM [2, 19]: 11.9% | MIC50 [4, 20]: < 0.03 µM | MIC50 [4, 21]: < 0.0312 µM | MIC [4, 22]: < 0.0312 µM | MIC [4, 23]: < 0.0312 µM | MIC [4, 24]: < 0.0312 µM | MIC [4, 25]: < 0.0312 µM | MIC ([4]; isolate P1, read-out: MIC P1): < 0.0312 µM | MIC [4, 26]: < 0.0312 µM | MIC [4, 27]: < 0.0312 µM | MIC ([4]; isolate So1, read-out: MIC So1): < 0.0312 µM | MIC ([4]; isolate i1, read-out: MIC i1): < 0.0312 µM | MIC ([4]; isolate i11, read-out: MIC i11): < 0.0312 µM | MIC50 (μM) ([4]; median MIC over ten M. mycetomatis isolates, no asterisk): <0.03 (≦0.03) μM

COC(=O)Nc1nc2ccccc2[nH]1 [MMV344625, Carbendazim]
Drug static or cidal (M. mycetomatis MM55; M. mycetomatis): Static | IC50 (M. mycetomatis MM55; [6]): 1320 nM | IC50 (M. mycetomatis MM55; [7]): 1320 nM | IC50 (M. mycetomatis MM55; [8]): 2280 nM | IC90 (M. mycetomatis MM55; [9]): 4720 nM | IC50 (M. mycetomatis MM55; [10]): 700 nM | IC90 (M. mycetomatis MM55; [11]): 1500 nM | IC50 (M. mycetomatis MM55; [12]): 970 nM | IC90 (M. mycetomatis MM55; [13]): > 25000 nM | Inhibits growth of Medicopsis romeroi at 25 μM [5]: inhibit the growth | Effect on larvae survival Day 4 (words) [3, 14]: Increase survival | Effect on larvae survival Day 4 (words) ([3]; 20 μM per larvae, vs infected control, listed as carbendazim): significantly increase larvae survival | Effect on larvae survival Day 10 (words) ([3]; 20 μM per larvae, vs infected control, day ten): No | In vivo efficacy, Enhanced survival compared to control? [3]: no | In vivo efficacy, Larvae survival % [3]: 6.7% | activity at 25 µM [2, 15]: 1.64% | activity at 100 µM [2, 16]: 8.48% | activity at 100 µM [2, 17]: 0.376% | activity at 100 µM [2, 18]: 3.66% | activity at 100 µM [2, 19]: 21.4% | activity at 25 µM ([2]; read-out: Percentage survival at 25um, 25 uM B): 6.23% | activity at 25 µM ([2]; read-out: Percentage survival at 25um, 25 uM C): 2.7% | activity at 25 µM ([2]; read-out: Percentage survival at 25um, 25 uM mean): 3.52% | MIC50 ([4]; Table 3 and Fig 5, benzimidazole carbamates, M. mycetomatis, read-out: MIC50): 0.5 µM (≈ 0.0956 µg/mL) | MIC50 [4, 20]: 0.5 µM (≈ 0.0956 µg/mL) | MIC50 [4, 21]: 0.5 µM (≈ 0.0956 µg/mL) | MIC [4, 22]: 0.5 µM (≈ 0.0956 µg/mL) | MIC [4, 23]: < 0.0312 µM | MIC [4, 24]: 1 µM (≈ 0.191 µg/mL) | MIC [4, 25]: 0.5 µM (≈ 0.0956 µg/mL) | MIC ([4]; isolate P1, read-out: MIC P1): 0.5 µM (≈ 0.0956 µg/mL) | MIC [4, 26]: 1 µM (≈ 0.191 µg/mL) | MIC [4, 27]: 1 µM (≈ 0.191 µg/mL) | MIC ([4]; isolate So1, read-out: MIC So1): 0.5 µM (≈ 0.0956 µg/mL) | MIC ([4]; isolate i1, read-out: MIC i1): 0.5 µM (≈ 0.0956 µg/mL) | MIC ([4]; isolate i11, read-out: MIC i11): 2 µM (≈ 0.382 µg/mL)
